Laboratory results from patent US20040253728A1, “New method” (priority 2000, published 2004).
*1 amine or outer side, *2 acyl side, *3 side chain or, on linkers, in order; H or OH if unused. Where a SMILES comes first, the peptide text is derived from it. Bridges are numbered along the chain shown (N, C = ends). Roman numbers before positions name the chains, in order. [ ]: non-standard residue; d: D form. Actinocin(9to1) = Cc1c2oc3c(C)ccc(C(=O)[*:1])c3nc-2c(C(=O)[*:2])c(N)c1=O; NMeV = CN[C@H](C(=O)O)C(C)C; Sar = CNCC(=O)O

B1: TFB2M: recombinant human mitochondrial transcription factor B2, homologue of yeast Mtf1, expressed in a baculovirus system (protein)
chain: AGRFCILGSEAATRKHLPARNHCGLSDSSPQLWPEPDFRNPPRKASKASLDFKRYVTDRRLAETLAQIYLGKPSRPPHLLLECNPGPGILTQALLEAGAKVVALESDKTFIPHLESLGKNLDGKLRVIHCDFFKLDPRSGGVIKPPAMSSRGLFKNLGIEAVPWTADIPLKVVGMFPSRGEKRALWKLAYDLYSCTSIYKFGRIEVNMFIGEKEFQKLMADPGNPDLYHVLSVIWQLACEIKVLHMEPWSSFDIYTRKGPLENPKRRELLDQLQQKLYLIQMIPRQNLFTKNLTPMNYNIFFHLLKHCFGRRSATVIDHLRSLTPLDARDILMQIGKQEDEKVVNMHPQDFKTLFETIERSKDCAYKWLYDETLEDR

Assays:
[1] = system: NADH dehydrogenase subunit 4 (ND4); conditions: cited from earlier work
[2] = system: ρ^0 (143B/206) and ρ^+ (143B) osteosarcoma cells; assay: Flow cytometric analysis of apoptotic cells (annexin V / propidium iodide); format: cell-based, human; conditions: for apoptosis induced in ρ^0 cells compared with ρ^+ cells (early apoptotic cells, annexin V positive/propidium iodide negative): 16 hours, 0.5 μM staurosporine, 100 ng/ml anti-Fas antibody or 20 ng/ml TNFα plus 100 ng/ml actinomycin D; for proapoptotic effect on ρ^0 or ρ^+ cells: agent alone
Protocol: (§1) A human osteosarcoma-derived cell line, 143B, containing mtDNA (ρ^+), and its mtDNA-less derivative, 143B/206 (ρ^0), were maintained in Dulbecco's Modified Eagle Medium (DMEM)-high glucose ([…]; GibcoBRL, Life Technologies AB, Sweden) containing 10% fetal bovine serum, and 100 IU/ml penicillin-streptomycin (GibcoBRL, Life Technologies AB, Sweden). The 143B/206 ρ^0 cells were additionally supplemented with 1 mM sodium pyruvate (GibcoBRL, Life Technologies AB, Sweden) and 50 μg/ml uridine (Sigma-Aldrich AB, Sweden) as described [King et al, Science 246:500-503 (1989)]. Cells were grown to sub-confluence.
We stained the cells with annexin V and propidium iodide using the Vybrant apoptosis assay kit 2 (Molecular Probes, Leiden, The Netherlands). Flow cytometric analyses were performed on a Beckton Dickinson flow cytometer (FACScan) and the results were analyzed by using the Cell Quest program (Beckton Dickinson).

[3] = system: ρ^0 (143B/206) and ρ^+ (143B) osteosarcoma cells; assay: Measurement of caspase 3 activity; format: cell-based, human; conditions: 16 hours; ρ^0 and ρ^+ cells; compared to untreated cells
Protocol: as §1
Caspase 3 activity was measured by the caspase 3 assay kit (Pharmingen, CA, USA). Briefly, a tetrapeptide labeled with the fluorochrome 7-amino-4-methylcoumarin (AMC) was used as a substrate to identify and quantitate caspase 3 activity. AMC is released from the substrate upon cleavage by caspase-3. Free AMC is quantified in cell lysates by ultraviolet (UV) using an excitation wavelength of 365 nm and an emission wavelength of 460 nm. […] Caspase 3 activity was measured on ρ^0 and ρ^+ cells incubated with 0.5 μM staurosporin (n=3), 100 ng/ml human anti-Fas antibody plus 100 ng/ml actinomycin D (n=3), and 20 ng/ml human recombinant tumour necrosis factor α plus 100 ng/ml actinomycin D (n=3) for 16 hours.

[4] = target: T1, human mtDNA light strand promoter (LSP) transcription (Homo sapiens, UniProt O00411+Q00059); assay: In vitro run off transcription assay with recombinant mtRNAP, TFAM, TFB1M/TFB2M; format: biochemical; conditions: TFAM (2.5 pmol), mtRNAP/TFB1M (400 fmol) or mtRNAP/TFB2M (400 fmol)
T1 construct: 10xHis (N); 6xHis (C); made in house; host or cells: Sf9 insect cells, recombinant baculovirus (pBacPAK9)
Excerpt: Recombinant human mitochondrial RNA polymerase (mtRNAP), TFAM, TFB1M, and TFB2M were expressed in a baculovirus system and purified to homogeneity. The activity of these proteins was studied in vitro by run off transcription assays. The template used was a human mtDNA fragment containing the light strand promoter (LSP) followed by a 200 base pairs long stretch of double-stranded DNA. Neither, mtRNAP, TFAM, TFB1M nor TFB2M did alone initiate transcription from the mtDNA promoter. […] However, specific transcription initiation from LSP was obtained by combining either mtRNAP, TFAM and TFB1M or mtRNAP, TFAM and TFB2M. On the basis of these experiments we conclude that both TFB1M and TFB2M are functional homologues of the previously identified Saccharomyces cerevisiae protein Mtf1.
To investigate the promoter specificity of the transcription reaction, we added a double-stranded oligonucleotide containing only the LSP sequence in a 100-fold surplus to the template DNA. […]
DNA fragments corresponding to base pairs 1-741 (LSP/HSP), 1-477 (LSP) or 499-741 (HSP) of human mtDNA [Anderson et al., Nature 290:457 (1981)] were cloned into pUC18. […] The pellets were dissolved in 10 μl of gel loading buffer (98% formamide, 10 mM EDTA pH 8.0, 0.025% xylene cyanol FF, 0.025% bromophenol blue), heated at 95° C. for 5 min, and analyzed on a 5% denaturing polyacrylamide gel in 1×TBE. […]

T1 sequence (O00411 42-1230): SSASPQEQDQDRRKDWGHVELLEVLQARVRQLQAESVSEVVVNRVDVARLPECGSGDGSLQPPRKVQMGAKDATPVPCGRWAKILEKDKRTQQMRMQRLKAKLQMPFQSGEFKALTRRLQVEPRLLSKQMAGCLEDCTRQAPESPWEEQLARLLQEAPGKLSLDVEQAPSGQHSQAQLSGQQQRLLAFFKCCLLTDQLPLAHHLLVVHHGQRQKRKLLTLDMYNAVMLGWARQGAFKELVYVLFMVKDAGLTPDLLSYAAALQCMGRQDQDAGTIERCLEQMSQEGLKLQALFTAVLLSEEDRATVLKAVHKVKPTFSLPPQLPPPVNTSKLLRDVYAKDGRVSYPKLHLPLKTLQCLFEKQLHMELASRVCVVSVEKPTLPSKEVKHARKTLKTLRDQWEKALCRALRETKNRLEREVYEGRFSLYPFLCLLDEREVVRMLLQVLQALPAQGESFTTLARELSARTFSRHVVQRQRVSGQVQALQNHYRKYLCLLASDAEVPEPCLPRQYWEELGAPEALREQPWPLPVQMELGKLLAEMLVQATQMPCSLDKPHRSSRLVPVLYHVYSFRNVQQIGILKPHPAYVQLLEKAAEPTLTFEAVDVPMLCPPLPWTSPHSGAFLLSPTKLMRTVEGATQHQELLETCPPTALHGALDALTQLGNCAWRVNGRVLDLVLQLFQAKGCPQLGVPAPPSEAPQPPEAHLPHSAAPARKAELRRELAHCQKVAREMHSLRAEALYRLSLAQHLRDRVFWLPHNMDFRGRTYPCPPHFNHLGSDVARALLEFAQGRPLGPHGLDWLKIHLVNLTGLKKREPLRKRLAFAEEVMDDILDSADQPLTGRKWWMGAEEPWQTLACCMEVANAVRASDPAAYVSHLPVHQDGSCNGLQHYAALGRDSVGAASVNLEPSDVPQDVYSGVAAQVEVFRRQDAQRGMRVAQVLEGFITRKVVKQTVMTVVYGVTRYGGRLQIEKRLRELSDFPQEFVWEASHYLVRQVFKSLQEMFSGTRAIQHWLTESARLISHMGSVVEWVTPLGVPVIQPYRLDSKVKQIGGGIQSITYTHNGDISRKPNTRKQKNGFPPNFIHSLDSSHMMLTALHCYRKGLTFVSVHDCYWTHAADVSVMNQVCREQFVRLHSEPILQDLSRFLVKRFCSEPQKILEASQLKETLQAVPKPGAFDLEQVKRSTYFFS
T1 sequence (Q00059 43-246): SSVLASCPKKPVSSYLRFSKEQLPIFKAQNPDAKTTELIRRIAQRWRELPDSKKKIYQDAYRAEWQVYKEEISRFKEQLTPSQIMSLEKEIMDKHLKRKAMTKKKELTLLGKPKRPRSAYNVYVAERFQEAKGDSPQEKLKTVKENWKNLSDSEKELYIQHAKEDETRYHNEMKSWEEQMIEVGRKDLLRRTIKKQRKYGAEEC

Molecule	cell death in the cell population [1]	differentiation in the surviving population [1]	further results
C=C(C)[C@H]1Cc2c(ccc3c2O[C@@H]2COc4cc(OC)c(OC)cc4[C@@H]2C3=O)O1 [Rotenone]	increase cell death	induce differentiation	–
CN[C@@H]1C[C@H]2O[C@@](C)([C@@H]1OC)n1c3ccccc3c3c4c(c5c6ccccc6n2c5c31)C(=O)NC4 [STP, staurosporine]	–	–	apoptosis induced in ρ^0 cells compared with ρ^+ cells (early apoptotic cells, annexin V positive/propidium iodide negative) [2]: more STP-induced apoptosis in cells with mtDNA (ρ^+ cells) than in their mtDNA-less derivatives; induction of caspase 3 activity [3]: significant induction of caspase 3 activity in both ρ^0 and ρ^+ cells
Cc1c2oc3c(C)ccc(C(=O)N[C@@H]4C(=O)N[C@H](C(C)C)C(=O)N5CCC[C@H]5C(=O)N(C)CC(=O)N(C)[C@@H](C(C)C)C(=O)O[C@@H]4C)c3nc-2c(C(=O)N[C@@H]2C(=O)N[C@H](C(C)C)C(=O)N3CCC[C@H]3C(=O)N(C)CC(=O)N(C)[C@@H](C(C)C)C(=O)O[C@@H]2C)c(N)c1=O [actinomycin D] (I: T[dV]P[Sar][NMeV] / II: T[dV]P[Sar][NMeV]; ester I:1-I:C, II:1-II:C; linker I:N-II:N via Actinocin(9to1))	–	–	apoptosis induced in ρ^0 cells compared with ρ^+ cells (early apoptotic cells, annexin V positive/propidium iodide negative) [2]: no significant differences in the fraction of apoptotic cells; proapoptotic effect on ρ^0 or ρ^+ cells [2]: proapoptotic effect on both ρ^0 and ρ^+ cells
Antimycin A	increase cell death	induce differentiation	–
Oligomycine	increase cell death	induce differentiation	–
TNFα	–	–	proapoptotic effect on ρ^0 or ρ^+ cells [2]: no proapoptotic effect
B1	–	–	transcriptional activation compared with TFB1M [4]: at least one order of magnitude greater
